Assay results published in patent US20250304583A1, “INHIBITING G CYCLIC AMP-RESPONSIVE ELEMENT-BINDING PROTEIN (CREB) BINDING PROTEIN (CBP)” (FORMA Therapeutics, Inc., priority 2020, published 2025).
Counter-ions that a name gives are not always drawn.

How the values were obtained:
[1] = tested on: panel of 10 BRD representing the various branches of the bromodomain tree; test: AlphaScreen panel of 10 bromodomains; format: binding; conditions: number of bromodomains out of 10
[2] = Dynamic vapor sorption (hygroscopicity); format: physicochemical; conditions: relative humidity of up to 80%, dynamic vapor sorption isotherm
Text: Dynamic Vapor Sorption (DVS) data were collected with a SMS DVS Intrinsic from Surface Measurement Systems.

[3] = Solid form stability at temperature and relative humidity; format: physicochemical; conditions: temperatures up to 40° C. and relative humidity of up to 75%

| Compound | activity against 10 bromodomains surveyed [1] | water uptake [2] [%] | stability of solid form [3] |
| --- | --- | --- | --- |
| COC(=O)N1c2ccc3c(nc([C@H](O)c4cc(F)ccc4OC)n3[C@@H]3CCC[C@@H](C(=O)O)C3)c2CC[C@@H]1C [Compound 1, (1R,3R)-3-[(7S)-2-[(R)-(5-fluoro-2-methoxyphenyl)(hydroxy)methyl]-6-(methoxycarbonyl)-7-methyl-3H,6H,7H,8H,9H-imidazo[4,5-f]quinolin-3-yl]cyclohexane-1-carboxylic acid] | inactive against 8 | – | – |
| COC(=O)N1c2ccc3c(nc([C@H](O)c4cc(F)ccc4OC)n3[C@@H]3CCC[C@@H](C(=O)O)C3)c2CC[C@@H]1C [type B p-toluenesulfonic acid addition salt] [(1R,3R)-3-((S)-2-((R)-(5-fluoro-2-methoxyphenyl)(hydroxy)methyl)-6-(methoxycarbonyl)-7-methyl-6,7,8,9-tetrahydro-3H-imidazo[4,5-f]quinolin-3-yl) cyclohexane-1-carboxylic acid] | – | 2.1 | stable for at least two weeks |
| COC(=O)N1c2ccc3c(nc([C@H](O)c4cc(F)ccc4OC)n3[C@@H]3CCC[C@@H](C(=O)O)C3)c2CC[C@@H]1C [HCl type A salt, (1R,3R)-3-((S)-2-((R)-(5-fluoro-2-methoxyphenyl)(hydroxy)methyl)-6-(methoxycarbonyl)-7-methyl-6,7,8,9-tetrahydro-3H-imidazo[4,5-f]quinolin-3-yl) cyclohexane-1-carboxylic acid] | – | 6.3 | stable for at least two weeks |
